Experimental data as given in patent US20100216116A1, “VIRAL LATENCY MODEL” (priority 2007, published 2010).
Several values for one entry are separate records, joined by “and”; a condition that tells them apart may be missing. Equal values may be shown once.

How the values were obtained:
Format in all cases: cell-based
[1] = test system: dormant PRV in porcine TG neurons
[2] = test system: pseudorabies virus (PRV) strain Becker in porcine trigeminal ganglion (TG) neurons
[3] = test system: IE180 expression in PRV infected porcine TG neurons
[4] = test system: HSV-1 strain F in porcine TG neurons

C=C[C@@]1(C)CC(=O)[C@]2(O)[C@@]3(C)[C@@H](O)CCC(C)(C)[C@@H]3[C@H](O)[C@H](OC(C)=O)[C@@]2(C)O1 [forskolin, Forskolin]
infected neurons showing expression of late viral proteins [1]: 70% | reactivation of PRV in neurons that contained dormant virus at 120 hpi [1]: 50%

IFN-α
TG neurons with no detectable expression of late viral antigens [2]: ~90% | infected neurons with spread of new virus to surrounding non-neuronal cells [2]: ~4% | neurons with late viral antigen expression limited to the golgi without spread [2]: ~6% | neurons without detectable expression of late viral proteins after withdrawal [2]: 60% | reduction of productive virus infection [2]: 64% and 98% | IE180 expression in discrete nuclear foci after withdrawal [3]: no infected neurons showing IE180 protein expression in discrete nuclear foci could be detected | infected neurons with IE180 in discrete nuclear compartments [3]: detected in all infected neurons | infected neurons with localized nuclear IE180 expression [3]: 45% | infected neurons without any IE180 staining [3]: 55% | expression of HSV-1 gD protein after withdrawal [4]: no detectable expression of HSV-1 gD protein was found in any neuron | productive HSV-1 infection [4]: completely abolished

B1: IFN-γ (protein, UniProt P01579 24-161, looked up)
Interferon gamma: QDPYVKEAENLKKYFNAGHSDVADNGTLFLGILKNWKEESDRKIMQSQIVSFYFKLFKNFKDDQSIQKSVETIKEDMNVKFFNSNKKKRDDFEKLTNYSVTDLNVQRKAIHELIQVMAELSPAAKTGKRKRSQMLFRG
infected neurons without detectable late viral protein expression [2]: Over 90% | reduction of productive virus infection [2]: 45% and 81% | virus spread in the inner chamber [2]: extensive virus spread
